Patent US7629318B2, “Immunosuppressant compounds, methods and uses related thereto” (priority 2002, dated 2009)
Values joined by “and” are separate entries in the source; they are usually repeats but may differ in a detail not shown here. Equal values may be shown once. Read-outs that look alike come from different tables or passages of the source. Numbered stars: 1 amine (or outer) side, 2 acyl side, 3 side chain; on linkers, the order of the positions; unused ones are H or OH. Square brackets hold non-standard residues; d marks the D form. Peptide text beside a SMILES is read from it. * marks the point of attachment. Gly(1-amidinopiperidin-4-yl) = N=C(N)N1CCC([C@H](N)C(=O)O)CC1; X1 = CC(C)c1oc([C@H](CO)N[*:1])nc1C(=O)[*:2]; Pro(3R-Ph) = O=C(O)[C@H]1NCC[C@@H]1c1ccccc1; Tic = O=C(O)[C@@H]1Cc2ccccc2CN1; Cha = N[C@@H](CC1CCCCC1)C(=O)O; NMe(benzyl) = CN(Cc1ccccc1)*; Nle = CCCC[C@H](N)C(=O)O; X2 = OCCOCCN(Cc1ccccc1)*

Assays:
[1] = Stability of compounds in rat blood plasma; assay type: in vitro ADME
Summary of the method: (§1)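 Compounds at 5 μM final in rat, mouse or human plasma, incubated at 37 °C and sampled at 0, 6 and 24 h. Proteins precipitated with acetonitrile and the supernatant dried and reconstituted in 50% acetonitrile/0.1% TFA. PBS controls run for unstable compounds.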

[2] = target: DR4Dw4 (DRA1*0101 DRB1*0401) (Homo sapiens, UniProt P01903+P01911, A100K/A169T/F76Y/I96L/K127E/L162R/M171V/N62H/P40V/Q125Y/R42H/S133A/S149N/S66Y/V115G/V209L/W38E); assay: Competitive binding to MHC-II protein DR4Dw4
Summary of the method: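 Each MHC-II allele incubated with compound 16 hours at room temperature in duplicate; controls lacked compound, or both compound and MHC-II. Complexes captured 2 h at 4 °C, bound biotinylated peptide detected via europium-streptavidin and DELFIA enhancement, time-resolved fluorescence read at ex 340/em 613 (615) nm.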

[3] = target: Cathepsin D (EC 3.4.23.5 from bovine spleen) (Bos taurus, UniProt P80209)
[4] = system: T-cell proliferation, DR14-LN; conditions: for Immunsupressive assays DR14-LN (Max) % Inhibition: maximal inhibition; for IC50: read-out: Immunsupressive assays DR14-LN (IC50)
[5] = Stability of compounds in human blood plasma; assay type: in vitro ADME
Summary of the method: as §1

SMILES	Stability (Arbitrary units) Rat 6 h [1] [Arbitrary units]	Stability (Arbitrary units) Rat 24 h [1] [Arbitrary units]	IC50 [2] [µM]	Stability (Arbitrary units) Cath D 4 h [3] [Arbitrary units]	Immunsupressive assays DR14-LN (Max) % Inhibition [4]	IC50 [4] [µM]	Stability (Arbitrary units) Human 6 h [5] [Arbitrary units]	Stability (Arbitrary units) Human 24 h ([5]; human plasma, 24 h) [Arbitrary units]	Stability (Arbitrary units) Human 24 h [5] [Arbitrary units]	Stability (Arbitrary units) Human 6 h ([5]; human plasma, 6 h) [Arbitrary units]
CSCC[C@H](NC(=O)[C@@H]1Cc2ccccc2CN1C(=O)[C@@H](NC(=O)[C@H](CC1CCCCC1)NC(C)=O)C1CCN(C(=N)N)CC1)C(=O)N(CCOCCO)Cc1ccccc1 [Compound P102, Ac-Cha-Gpg-Tic-Met-N(Bn)CH2CH2OCH2CH2OH] (Ac-[Cha][Gly(1-amidinopiperidin-4-yl)][Tic]M-X2)	131	121	1.7	120	100%	73	110	116		
CCCC[C@H](NC(=O)[C@@H]1Cc2ccccc2CN1C(=O)[C@H](CCCNC(=N)N)NC(=O)[C@H](CC1CCCCC1)NC(C)=O)C(=O)N1CC[C@H](c2ccccc2)[C@H]1C(=O)N[C@@H](CO)c1nc(C(=O)N(C)C)c(C(C)C)o1 [Compound P51, Ac-Cha-Arg-Tic-Nle-βPhPro-[S(oxaz)L]-NMe2] (Ac-[Cha]R[Tic][Nle][Pro(3R-Ph)][X1]-NMe2)	81	60	0.67	103	99%	52	119		129	
CCCC[C@H](NC(=O)[C@@H]1Cc2ccccc2CN1C(=O)[C@@H](NC(=O)[C@H](CC1CCCCC1)NC(C)=O)C1CCN(C(=N)N)CC1)C(=O)N(CCOCCO)Cc1ccccc1 [Compound P101, Ac-Cha-Gpg-Tic-Nle-N(Bn)CH2CH2OCH2CH2OH] (Ac-[Cha][Gly(1-amidinopiperidin-4-yl)][Tic][Nle]-X2)	73	81	1.5	106	100%	46			107	106
CCCC[C@H](NC(=O)[C@@H]1Cc2ccccc2CN1C(=O)[C@H](CCCNC(=N)N)NC(=O)[C@H](CC1CCCCC1)NC(C)=O)C(=O)N(C)Cc1ccccc1 [Compound P71, Ac-Cha-Arg-Tic-Nle-N(Me)Bn] (Ac-[Cha]R[Tic][Nle]-{NMe(benzyl)})	89	53		104	98% and 96%	15	107		90	
